Structures can show the parent of a compound that is named as a salt.
The compounds below were run on Acinetobacter baumannii ATCC17961 (assay: Antimicrobial susceptibility testing: 90% growth inhibitory concentration (IC90) determination in Iso-Sensitest broth, OD600 growth). Conditions: Acinetobacter baumannii, ATCC17961, 16 h, read-out: A. baumannii ATCC 17961 IC90 (uM), strain ATCC 17961, OD600 growth over 16 h.
Format: cell-based
In short: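 Twofold compound dilutions (e.g. 50 to 0.097 μM final) in Iso-Sensitest broth with ~5×10^(5) CFU/ml, 35±2 °C. OD600 read every 20 min over 16 h; IC90 from growth inhibition during logarithmic phase.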

Compound | IC90 [µM]
N#CCn1cc(-c2cnc3c(Nc4ccc(C(=O)NCC(=O)N[C@@H]5CCNC5)c(Cl)c4)nccn23)c(C(F)(F)F)n1 [Example 723, 2-chloro-4-[[3-[1-(cyanomethyl)-3-(trifluoromethyl)pyrazol-4-yl]imidazo[1,2-a]pyrazin-8-yl]amino]-N-[2-oxo-2-[[(3R)-pyrrolidin-3-yl]amino]ethyl]benzamide formate] | 0.459
Cc1cc(Nc2nccn3c(-c4cn(CC#N)nc4C(F)(F)F)cnc23)ccc1C(=O)N[C@H](C)C(=O)NC1CC(N)C1 (stereo partly drawn) [Example 725, N-[(1R)-2[(3-aminocyclobutyl)amino]-1-methyl-2-oxo-ethyl]-4-[[3-[1-(cyanomethyl)-3-(trifluoromethyl)pyrazol-4-yl]imidazo[1,2-a]pyrazin-8-yl]amino]-2-methyl-benzamide formate] | 0.462
Cc1cc(Nc2nccn3c(-c4cn(CC#N)nc4C(F)(F)F)cnc23)ccc1C(=O)N[C@H](C)C(=O)N1CCNCC1 [Example 726, 4-[[3-[1-(cyanomethyl)-3-(trifluoromethyl)pyrazol-4-yl]imidazo[1,2-a]pyrazin-8-yl]amino]-2-methyl-N-[(1R)-1-methyl-2-oxo-2-piperazin-1-yl-ethyl]benzamide formate] | 0.463
N#CCn1cc(-c2cnc3c(Nc4ccc(C(=O)NCC(=O)N[C@H]5CCNC5)c(Cl)c4)nccn23)c(C(F)(F)F)n1 [Example 731, 2-chloro-4-[[3-[1-(cyanomethyl)-3-(trifluoromethyl)pyrazol-4-yl]imidazo[1,2-a]pyrazin-8-yl]amino]-N-[2-oxo-2-[[(3S)-pyrrolidin-3-yl]amino]ethyl]benzamide formate] | 0.476
CCc1cc(Nc2nccn3c(-c4cn(CC#N)nc4C(F)(F)F)cnc23)ccc1C(=O)N[C@H](C)C(=O)N1CC[C@@H](N)C1 [Example 732, N-[(1R)-2-[(3R)-3-aminopyrrolidin-1-yl]-1-methyl-2-oxo-ethyl]-4-[[3-[1-(cyanomethyl)-3-(trifluoromethyl)pyrazol-4-yl]imidazo[1,2-a]pyrazin-8-yl]amino]-2-ethyl-benzamide formate] | 0.48
CCc1cc(Nc2nccn3c(-c4cn(CC#N)nc4C(F)(F)F)cnc23)ccc1C(=O)N[C@H](C)C(=O)N1CC[C@H](N)C1 [Example 736, N-[(1R)-2-[(3S)-3-aminopyrrolidin-1-yl]-1-methyl-2-oxo-ethyl]-4-[[3-[1-(cyanomethyl)-3-(trifluoromethyl)pyrazol-4-yl]imidazo[1,2-a]pyrazin-8-yl]amino]-2-ethyl-benzamide formate] | 0.49
CCc1cc(Nc2nccn3c(-c4cn(CCF)nc4C(F)(F)F)cnc23)ccc1C(=O)NCCOCCN1CCOCC1 [Example 737, 2-ethyl-4-((3-(1-(2-fluoroethyl)-3-(trifluoromethyl)-1H-pyrazol-4-yl)imidazo[1,2-a]pyrazin-8-yl)amino)-N-(2-(2-morpholinoethoxy)ethyl)benzamide formate] | 0.495
Cc1cc(Nc2nccn3c(-c4cn(CC#N)nc4C(F)(F)F)cnc23)ccc1C(=O)N[C@H](C)C(=O)N[C@H]1CCNC1 [Example 738, 4-[[3-[1-(cyanomethyl)-3-(trifluoromethyl)pyrazol-4-yl]imidazo[1,2-a]pyrazin-8-yl]amino]-2-methyl-N-[(1R)-1-methyl-2-oxo-2-[[(3S)-pyrrolidin-3-yl]amino]ethyl]benzamide formate] | 0.526
Cc1cc(Nc2nccn3c(-c4cn(CC#N)nc4C(F)(F)F)cnc23)ccc1C(=O)NCC(=O)N1CC[C@H](N)C1 [Example 739, N-[2-[(3S)-3-aminopyrrolidin-1-yl]-2-oxo-ethyl]-4-[[3-[1-(cyanomethyl)-3-(trifluoromethyl)pyrazol-4-yl]imidazo[1,2-a]pyrazin-8-yl]amino]-2-methyl-benzamide formate] | 0.527
Cc1cc(Nc2nccn3c(-c4cn(CC#N)nc4C(F)(F)F)cnc23)cc(F)c1C(=O)N[C@H](C)CNC(=O)C1CCNCC1 [Example 741, (R)-N-(2-(4-((3-(1-(cyanomethyl)-3-(trifluoromethyl)-1H-pyrazol-4-yl)imidazo[1,2-a]pyrazin-8-yl)amino)-2-fluoro-6-methylbenzamido)propyl)piperidine-4-carboxamide formate] | 0.53

Same assay, conditions: Acinetobacter baumannii, ATCC17961, 16 h, strain ATCC 17961, OD600 growth over 16 h, read-out: A. baumannii ATCC 17961 IC90

IC90 [µM] | Compound
0.459 | CCc1cc(Nc2nccn3c(-c4c[nH]nc4C(F)(F)F)cnc23)ccc1C(=O)NCCNC(=O)[C@H]1CC[C@@H](N)C1 [Example 724, N-(2-((1S,3R)-3-aminocyclopentane-1-carboxamido)ethyl)-2-ethyl-4-((3-(3-(trifluoromethyl)-1H-pyrazol-4-yl)imidazo[1,2-a]pyrazin-8-yl)amino)benzamide]
0.465 | CCc1cc(Nc2nccn3c(-c4cn(CC(F)F)nc4C(F)(F)F)cnc23)ccc1C(=O)NCCCNC(=O)[C@@H]1C[C@@H](O)CN1 [Example 727, (2S,4R)-N-(3-(4-((3-(1-(2,2-difluoroethyl)-3-(trifluoromethyl)-1H-pyrazol-4-yl)imidazo[1,2-a]pyrazin-8-yl)amino)-2-ethylbenzamido)propyl)-4-hydroxypyrrolidine-2-carboxamide]
0.473 | CCc1cc(Nc2nccn3c(-c4cn(CC(F)F)nc4C(F)(F)F)cnc23)ccc1C(=O)NCC(=O)NCCN [Example 729, N-[2-(2-aminoethylamino)-2-oxo-ethyl]-4-[[3-[1-(2,2-difluoroethyl)-3-(trifluoromethyl)pyrazol-4-yl]imidazo[1,2-a]pyrazin-8-yl]amino]-2-ethyl-benzamide]
0.475 | C#CCn1cc(-c2cnc3c(Nc4ccc(C(=O)N5CCN(C(=O)C6CCNCC6)CC5)c(CC)c4)nccn23)c(C(F)F)n1 [Example 730, (4-(4-((3-(3-(difluoromethyl)-1-(prop-2-yn-1-yl)-1H-pyrazol-4-yl)imidazo[1,2-a]pyrazin-8-yl)amino)-2-ethylbenzoyl)piperazin-1-yl)(piperidin-4-yl) methanone]
0.481 | CCc1cc(Nc2nccn3c(-c4cn(CC(F)F)nc4C(F)(F)F)cnc23)ccc1C(=O)NCC(=O)N1CC(N)C1 [Example 733, N-[2-(3-aminoazetidin-1-yl)-2-oxo-ethyl]-4-[[3-[1-(2,2-difluoroethyl)-3-(trifluoromethyl)pyrazol-4-yl]imidazo[1,2-a]pyrazin-8-yl]amino]-2-ethyl-benzamide]
0.489 | C#CCn1cc(-c2cnc3c(Nc4ccc(C(=O)N5CCN(C(=O)[C@H]6C[C@H](N)C6)CC5)c(CC)c4)nccn23)c(C(F)F)n1 [Example 734, (4-((1r,3r)-3-aminocyclobutane-1-earbonyl)piperazin-1-yl)(4-((3-(3-(difluoromethyl)-1-(prop-2-yn-1-yl)-1H-pyrazol-4-yl)imidazo[1,2-a]pyrazin-8-yl)amino)-2-ethylphenyl)methanone]
0.49 | Cc1cc(Nc2nccn3c(-c4cn(CCF)nc4C(F)(F)F)cnc23)cc(F)c1C(=O)N[C@H](C)CN [Example 735, (R)-N-(1-aminopropan-2-yl)-2-fluoro-4-((3-(1-(2-fluoroethyl)-3-(trifluoromethyl)-1H-pyrazol-4-yl)imidazo[1,2-a]pyrazin-8-yl)amino)-6-methylbenzamide]
0.529 | CCc1cc(Nc2nccn3c(-c4c[nH]nc4C(F)(F)F)cnc23)ccc1C(=O)NCCNC(=O)[C@H]1C[C@@H](N)C1 [Example 740, N-(2-((1s,3s)-3-aminocyclobutane-1-carboxamido)ethyl)-2-ethyl-4-((3-(3-(trifluoromethyl)-1H-pyrazol-4-yl)imidazo[1,2-a]pyrazin-8-yl)amino)benzamide]
0.53 | CCc1cc(Nc2nccn3c(-c4cn(CC(F)F)nc4C(F)F)cnc23)ccc1C(=O)N1CCN(C(=O)C2CCNCC2)CC1 [Example 742, (4-(4-((3-(1-(2,2-difluoroethyl)-3-(difluoromethyl)-1H-pyrazol-4-yl)imidazo[1,2-a]pyrazin-8-yl)amino)-2-ethylbenzoyl)piperazin-1-yl)(piperidin-4-yl) methanone]
0.532 | CCc1cc(Nc2nccn3c(-c4cn(CC(F)F)nc4C(F)F)cnc23)ccc1C(=O)N1CCN(C(=O)[C@H]2C[C@H](N)C2)CC1 [Example 743, (4-((1r,3r)-3-aminocyclobutane-1-carbonyl)piperazin-1-yl)(4-((3-(1-(2,2-difluoroethyl)-3-(difluoromethyl)-1H-pyrazol-4-yl)imidazo[1,2-a]pyrazin-8-yl)amino)-2-ethylphenyl) methanone]
0.557 | Cc1cc(Nc2nccn3c(-c4cn(CC(F)F)nc4C(F)(F)F)cnc23)cc(F)c1C(=O)N[C@H](C)CNC(=O)[C@@H]1C[C@@H](O)CN1 [Example 744, (2S,4R)-N-((R)-2-(4-((3-(1-(2,2-difluoroethyl)-3-(trifluoromethyl)-1H-pyrazol-4-yl)imidazo[1,2-a]pyrazin-8-yl)amino)-2-fluoro-6-methylbenzamido)propyl)-4-hydroxypyrrolidine-2-carboxamide]
0.569 | CCc1cc(Nc2nccn3c(-c4cn(C(C)C#N)nc4C(F)(F)F)cnc23)ccc1C(=O)NCCOCCN1CCOCC1 (stereo not drawn) [Example 745, 4-((3-(1-(1-cyanoethyl)-3-(trifluoromethyl)-1H-pyrazol-4-yl)imidazo[1,2-a]pyrazin-8-yl)amino)-2-ethyl-N-(2-(2-morpholinoethoxy)ethyl) benzamide formate]
0.581 | Cc1cc(Nc2nccn3c(-c4cn(CC#N)nc4C(F)(F)F)cnc23)ccc1C(=O)N[C@H](C)C(=O)N[C@@H]1CCNC1 [Example 746, 4-[[3-[1-(cyanomethyl)-3-(trifluoromethyl)pyrazol-4-yl]imidazo[1,2-a]pyrazin-8-yl]amino]-2-methyl-N-[(1R)-1-methyl-2-oxo-2-[[(3R)-pyrrolidin-3-yl]amino]ethyl] benzamide formate]
0.598 | C#CCn1cc(-c2cnc3c(Nc4ccc(C(=O)N5CCN(C(=O)[C@@H](C)N)CC5)c(CC)c4)nccn23)c(C(F)F)n1 [Example 747, (R)-2-amino-1-(4-(4-((3-(3-(difluoromethyl)-1-(prop-2-yn-1-yl)-1H-pyrazol-4-yl)imidazo[1,2-a]pyrazin-8-yl)amino)-2-ethylbenzoyl)piperazin-1-yl)propan-1-one]

Source: US20230203043A1, “NOVEL IMIDAZOPYRAZINE DERIVATIVES” (Hoffmann-La Roche Inc., priority 2020, published 2023)
